Assay [1] can be described thus: Shn3 3'UTR reporter inhibitors, dose response, cell-based, Clone20 osteoblasts, firefly luciferase, cherry-picked (AID 624132).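 Further: firefly luciferase luminescence from reporter carrying the Shn3 3'UTR in osteoblasts.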 It is filed as functional.
In assay [2] the target is Glucose-6-phosphate 1-dehydrogenase (Homo sapiens, UniProt P11413). Description: human G6PD enzyme inhibitors, dose response, selectivity assay for P. falciparum G6PD inhibitor project, biochemical, fluorescence (AID 504792). It is filed as functional.
A further assay relates to BJ. As to the kind of experiment: cytotoxicity toward Ras-transformed BJeLR fibroblasts, dose response, cell-based, alamar blue fluorescence, cherrypicked samples (AID 2631).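 Further: confirmatory dose-response assay in RAS-dependent BJ fibroblasts engineered with TERT, LT and ST, with cytotoxicity read by fluorescence.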 The format is functional. Particulars: Homo sapiens. A general note: The colour change of resazurin is a common sign of viable cells or microbes.
The target in assay [3] is G-protein coupled receptor 55 (Homo sapiens, UniProt Q9Y2T6). As to the kind of experiment: GPR55 antagonists blocking LPI-driven arrestin recruitment, primary screen, imaging, U2OS, beta-arrestin-GFP, LPI agonist (AID 2013).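 Further: antagonist potency measured as reduced agonist-driven arrestin aggregation.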 The format is functional. For orientation: Recruitment of arrestin is a read-out of receptor activation apart from second messengers.
Assay [4] has as its target T1, Heat shock factor protein 1 (Mus musculus, UniProt P38532).
T1 sequence (P38532 whole entry): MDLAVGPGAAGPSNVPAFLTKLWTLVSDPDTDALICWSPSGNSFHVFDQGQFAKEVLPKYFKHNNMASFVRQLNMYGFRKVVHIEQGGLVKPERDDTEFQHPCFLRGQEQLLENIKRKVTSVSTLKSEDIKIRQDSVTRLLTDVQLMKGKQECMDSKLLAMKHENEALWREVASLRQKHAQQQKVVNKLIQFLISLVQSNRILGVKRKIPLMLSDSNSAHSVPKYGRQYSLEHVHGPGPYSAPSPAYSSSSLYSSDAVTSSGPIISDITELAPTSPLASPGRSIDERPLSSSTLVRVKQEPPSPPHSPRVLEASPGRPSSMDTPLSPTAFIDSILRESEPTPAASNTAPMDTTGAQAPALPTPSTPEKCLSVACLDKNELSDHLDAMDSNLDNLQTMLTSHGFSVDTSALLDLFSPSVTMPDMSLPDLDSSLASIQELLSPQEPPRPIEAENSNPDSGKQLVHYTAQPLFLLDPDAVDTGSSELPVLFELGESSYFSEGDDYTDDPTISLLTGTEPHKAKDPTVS
As to the kind of experiment: inhibition of MG132-induced HSE-luciferase signal, confirmation, cell-based, NIH3T3, luminescence, dose retest (AID 2382).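 Further: NIH3T3 fibroblasts with HSF1-driven luciferase reporter stressed by proteasome inhibitor MG132; luminescence from HSF1-driven luciferase expression after 8 hours of MG132 stress.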 It is filed as functional.

The subject of another assay is CHO. Description: cytotoxicity in TLR9-MyD88 CHO cells, dose response, cytotoxicity control for TLR9-MyD88 binding inhibitor project, cell-based, luminescence (AID 588339).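 Further: CHO cells stably coexpressing TLR9 and MyD88 fusions from primary screen; compound exposure lasted 48 hours before viability readout.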 The format is functional, hamster. Particulars: Cricetulus griseus.
A further assay addresses Beta Lactamase (Pseudomonas aeruginosa, UniProt Q932Y6). As to the kind of experiment: beta-lactamase reporter inhibitor potency, dose response, artefact control for TLR9-MyD88 binding inhibitor project, BLA reporter cells, FRET fluorescence (AID 588341).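 Further: cell based assay in CHO-K1 cells stably expressing beta-lactamase.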 The format is cell-based.
In a further assay the target is Keap1/Nrf2 (Homo sapiens, UniProt Q14145). Description: Keap1-Nrf2 protein-protein interaction inhibitors, dose response, biochemical, fluorescence polarization, cherry-picked samples (AID 588683). (In fluorescence polarisation assays a small probe gives low polarisation when free and higher when bound to something large.)
Assay [5] is described as follows: DNA binding of candidate compounds, dose response, artefact control for RAD54 inhibitor project, biochemical, fluorescence polarization, cherry-pick (AID 651673). The format is functional.
The next assay deals with Genome polyprotein (dengue virus type 2, UniProt P29990). Description: Dengue-2 NS5 methyltransferase inhibitors, primary screen, biochemical, confirmation dose response (AID 588689). The format is functional.
In the next assay the target is Nonstructural protein 1 (Influenza A virus, UniProt Q194T2). The format is functional, Influenza A virus (A/California/07/2009(H1N1)).
The target in assay [6] is T2, Tyrosine-protein phosphatase non-receptor type 22 (Homo sapiens, UniProt Q9Y2R2).
T2 sequence (Q9Y2R2 whole entry): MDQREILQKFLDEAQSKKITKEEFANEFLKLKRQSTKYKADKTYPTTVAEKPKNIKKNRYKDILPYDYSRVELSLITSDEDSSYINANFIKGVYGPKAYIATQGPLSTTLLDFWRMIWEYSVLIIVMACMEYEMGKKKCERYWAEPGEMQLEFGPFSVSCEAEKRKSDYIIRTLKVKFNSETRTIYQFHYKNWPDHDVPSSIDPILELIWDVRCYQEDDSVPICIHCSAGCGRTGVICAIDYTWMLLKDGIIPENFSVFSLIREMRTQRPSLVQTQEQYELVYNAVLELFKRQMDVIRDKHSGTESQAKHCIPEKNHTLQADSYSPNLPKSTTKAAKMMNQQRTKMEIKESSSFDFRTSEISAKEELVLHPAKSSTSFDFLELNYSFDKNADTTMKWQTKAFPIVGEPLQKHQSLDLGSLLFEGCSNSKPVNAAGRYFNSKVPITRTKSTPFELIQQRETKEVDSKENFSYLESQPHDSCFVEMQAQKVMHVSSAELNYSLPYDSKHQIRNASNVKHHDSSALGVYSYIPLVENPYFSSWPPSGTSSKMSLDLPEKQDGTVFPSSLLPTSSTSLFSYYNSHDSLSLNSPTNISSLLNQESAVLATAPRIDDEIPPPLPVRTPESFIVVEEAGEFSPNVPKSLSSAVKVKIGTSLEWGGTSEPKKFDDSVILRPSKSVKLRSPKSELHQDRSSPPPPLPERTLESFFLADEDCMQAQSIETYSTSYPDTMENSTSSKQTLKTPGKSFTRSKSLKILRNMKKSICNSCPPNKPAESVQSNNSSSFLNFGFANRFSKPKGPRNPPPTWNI
The format is functional.

Assay [7] deals with T3, Tyrosine-protein phosphatase non-receptor type 7 (Homo sapiens, UniProt P35236).
T3 sequence (P35236 whole entry): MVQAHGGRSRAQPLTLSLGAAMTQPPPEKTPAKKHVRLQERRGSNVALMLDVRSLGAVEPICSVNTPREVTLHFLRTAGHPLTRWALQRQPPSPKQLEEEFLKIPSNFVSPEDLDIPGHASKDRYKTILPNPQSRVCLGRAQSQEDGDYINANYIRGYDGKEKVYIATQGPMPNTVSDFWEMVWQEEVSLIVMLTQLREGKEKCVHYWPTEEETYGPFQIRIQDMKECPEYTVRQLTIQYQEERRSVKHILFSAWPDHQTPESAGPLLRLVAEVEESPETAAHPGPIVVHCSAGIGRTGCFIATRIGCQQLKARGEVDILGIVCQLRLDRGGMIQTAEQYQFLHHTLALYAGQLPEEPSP
It is filed as functional.

In assay [8] the target is Voltage-gated N-type calcium channel alpha-1B subunit/Amyloid beta A4 precursor protein-binding family A member 1 (Homo sapiens, UniProt Q00975+Q02410). It is filed as protein assay.
In assay [9] the target is Dual specificity protein phosphatase 3 (Homo sapiens, UniProt P51452). Description: VHR1 phosphatase inhibitors, biochemical (AID 1878).
Assay [10] concerns the target T2, Tyrosine-protein phosphatase non-receptor type 22. The format is functional. The source holds these as a separate data set.
Assay [11] addresses T4, Small ubiquitin-related modifier 1 (Homo sapiens, UniProt P63165). As to the kind of experiment: inhibitors of SUMO1 peptide binding, dose response, biochemical, fluorescence polarization, uHTS hits (AID 624382). It is filed as functional. Particulars: read-out: IC50_Mean.
Assay [12] has as its target T4, Small ubiquitin-related modifier 1. As to the kind of experiment: inhibitors of SUMO1 partner interactions, dose response, biochemical, FRET (AID 624383). Particulars: read-out: IC50_Mean. It is filed as functional.
The target in assay [13] is Probable nicotinate-nucleotide adenylyltransferase (Staphylococcus aureus (strain N315), UniProt P65502). The format is functional, Staphylococcus aureus subsp. aureus N315.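 Further: confirmatory retest of primary uHTS inhibitor hits against NadD over a range of doses.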

Usually AC50 stands for the concentration giving half of the maximal activity seen. A word on the EC50: it is the concentration needed to bring the measured effect to its halfway point.

The source made the active and inactive calls.

T4 sequence (P63165 whole entry): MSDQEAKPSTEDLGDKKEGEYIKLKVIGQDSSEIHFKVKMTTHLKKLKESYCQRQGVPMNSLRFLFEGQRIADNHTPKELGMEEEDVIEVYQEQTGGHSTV
Glucose-6-phosphate 1-dehydrogenase, sequence (P11413 whole entry): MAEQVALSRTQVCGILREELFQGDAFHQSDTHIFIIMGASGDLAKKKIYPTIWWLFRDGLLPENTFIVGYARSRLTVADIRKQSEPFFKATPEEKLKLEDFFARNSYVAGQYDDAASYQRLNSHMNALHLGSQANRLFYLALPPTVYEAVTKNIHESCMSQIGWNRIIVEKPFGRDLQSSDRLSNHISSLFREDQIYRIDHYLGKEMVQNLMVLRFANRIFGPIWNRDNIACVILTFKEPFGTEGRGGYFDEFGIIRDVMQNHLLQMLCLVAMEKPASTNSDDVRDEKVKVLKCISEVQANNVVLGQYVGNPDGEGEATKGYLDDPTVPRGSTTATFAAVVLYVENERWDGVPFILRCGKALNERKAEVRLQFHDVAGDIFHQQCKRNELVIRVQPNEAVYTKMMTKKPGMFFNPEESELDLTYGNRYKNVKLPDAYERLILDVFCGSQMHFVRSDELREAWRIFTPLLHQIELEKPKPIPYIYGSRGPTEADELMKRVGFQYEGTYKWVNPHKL
Beta Lactamase, sequence (Q932Y6 whole entry): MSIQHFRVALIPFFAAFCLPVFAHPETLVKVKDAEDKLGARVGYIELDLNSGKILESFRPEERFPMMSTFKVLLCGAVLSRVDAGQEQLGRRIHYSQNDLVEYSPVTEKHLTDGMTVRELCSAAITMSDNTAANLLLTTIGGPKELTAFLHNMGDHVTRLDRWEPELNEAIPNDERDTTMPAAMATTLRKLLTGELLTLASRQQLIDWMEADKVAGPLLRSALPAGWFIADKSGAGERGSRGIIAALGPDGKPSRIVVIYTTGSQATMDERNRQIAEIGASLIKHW
Voltage-gated N-type calcium channel alpha-1B subunit/Amyloid beta A4 precursor protein-binding family A member 1, sequence (Q00975 whole entry): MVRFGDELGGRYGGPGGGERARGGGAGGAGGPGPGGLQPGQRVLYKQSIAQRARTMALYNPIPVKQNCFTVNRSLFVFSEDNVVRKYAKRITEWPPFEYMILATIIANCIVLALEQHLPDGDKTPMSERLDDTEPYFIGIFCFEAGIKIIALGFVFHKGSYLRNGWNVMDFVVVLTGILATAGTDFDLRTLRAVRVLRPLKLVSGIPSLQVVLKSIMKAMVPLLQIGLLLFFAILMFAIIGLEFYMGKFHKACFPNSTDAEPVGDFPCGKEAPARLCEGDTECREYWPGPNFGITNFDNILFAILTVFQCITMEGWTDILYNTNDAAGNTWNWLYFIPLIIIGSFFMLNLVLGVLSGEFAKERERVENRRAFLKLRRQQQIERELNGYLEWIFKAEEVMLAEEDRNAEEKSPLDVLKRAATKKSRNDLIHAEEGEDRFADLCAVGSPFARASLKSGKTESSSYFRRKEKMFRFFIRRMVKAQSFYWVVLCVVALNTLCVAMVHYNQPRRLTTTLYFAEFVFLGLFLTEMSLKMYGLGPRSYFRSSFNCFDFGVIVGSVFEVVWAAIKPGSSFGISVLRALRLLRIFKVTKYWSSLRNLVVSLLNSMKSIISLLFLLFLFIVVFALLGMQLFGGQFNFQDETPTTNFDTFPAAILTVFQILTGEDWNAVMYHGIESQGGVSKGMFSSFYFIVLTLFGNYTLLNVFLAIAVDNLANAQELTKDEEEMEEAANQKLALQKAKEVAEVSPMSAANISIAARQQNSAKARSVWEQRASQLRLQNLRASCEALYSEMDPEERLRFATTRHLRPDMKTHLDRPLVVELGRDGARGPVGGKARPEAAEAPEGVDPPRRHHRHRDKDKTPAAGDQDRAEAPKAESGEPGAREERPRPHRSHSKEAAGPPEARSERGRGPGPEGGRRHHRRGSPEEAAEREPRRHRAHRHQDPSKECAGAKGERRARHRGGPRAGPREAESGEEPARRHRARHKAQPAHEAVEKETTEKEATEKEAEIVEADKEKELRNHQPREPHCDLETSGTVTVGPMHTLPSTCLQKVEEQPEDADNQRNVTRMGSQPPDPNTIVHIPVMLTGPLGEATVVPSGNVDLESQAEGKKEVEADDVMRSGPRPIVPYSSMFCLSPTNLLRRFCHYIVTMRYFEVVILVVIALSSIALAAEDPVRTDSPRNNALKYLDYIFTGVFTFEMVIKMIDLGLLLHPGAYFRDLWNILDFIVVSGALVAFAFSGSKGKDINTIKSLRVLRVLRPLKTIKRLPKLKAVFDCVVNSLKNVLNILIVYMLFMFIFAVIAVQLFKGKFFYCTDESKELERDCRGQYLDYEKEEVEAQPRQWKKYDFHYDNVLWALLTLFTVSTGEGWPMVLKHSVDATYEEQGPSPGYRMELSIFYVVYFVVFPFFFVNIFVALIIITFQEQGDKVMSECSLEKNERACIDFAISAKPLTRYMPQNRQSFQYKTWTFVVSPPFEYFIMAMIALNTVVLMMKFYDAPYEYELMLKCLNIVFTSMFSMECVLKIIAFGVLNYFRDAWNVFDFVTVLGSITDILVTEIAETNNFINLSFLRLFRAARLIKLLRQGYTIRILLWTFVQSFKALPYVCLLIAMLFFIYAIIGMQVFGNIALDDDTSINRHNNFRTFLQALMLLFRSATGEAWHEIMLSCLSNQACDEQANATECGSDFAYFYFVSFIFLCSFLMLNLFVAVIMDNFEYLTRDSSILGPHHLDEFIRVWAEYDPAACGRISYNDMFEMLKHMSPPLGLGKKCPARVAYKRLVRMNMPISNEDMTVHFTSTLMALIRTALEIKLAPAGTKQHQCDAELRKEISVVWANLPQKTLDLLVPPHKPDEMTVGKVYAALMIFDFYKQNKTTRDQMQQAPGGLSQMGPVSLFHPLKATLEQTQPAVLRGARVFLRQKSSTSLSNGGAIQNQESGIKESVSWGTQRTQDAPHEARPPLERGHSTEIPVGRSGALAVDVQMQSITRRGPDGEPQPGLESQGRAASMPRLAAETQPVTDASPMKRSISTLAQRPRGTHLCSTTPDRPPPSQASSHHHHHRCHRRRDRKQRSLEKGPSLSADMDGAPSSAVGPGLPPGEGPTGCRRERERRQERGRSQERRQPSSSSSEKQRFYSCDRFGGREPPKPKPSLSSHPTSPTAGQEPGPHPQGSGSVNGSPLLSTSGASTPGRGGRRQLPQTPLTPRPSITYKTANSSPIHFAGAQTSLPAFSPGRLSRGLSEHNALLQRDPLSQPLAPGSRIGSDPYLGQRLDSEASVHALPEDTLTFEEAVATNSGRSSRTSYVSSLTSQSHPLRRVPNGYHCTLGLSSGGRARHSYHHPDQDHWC
Voltage-gated N-type calcium channel alpha-1B subunit/Amyloid beta A4 precursor protein-binding family A member 1, sequence (Q02410 whole entry): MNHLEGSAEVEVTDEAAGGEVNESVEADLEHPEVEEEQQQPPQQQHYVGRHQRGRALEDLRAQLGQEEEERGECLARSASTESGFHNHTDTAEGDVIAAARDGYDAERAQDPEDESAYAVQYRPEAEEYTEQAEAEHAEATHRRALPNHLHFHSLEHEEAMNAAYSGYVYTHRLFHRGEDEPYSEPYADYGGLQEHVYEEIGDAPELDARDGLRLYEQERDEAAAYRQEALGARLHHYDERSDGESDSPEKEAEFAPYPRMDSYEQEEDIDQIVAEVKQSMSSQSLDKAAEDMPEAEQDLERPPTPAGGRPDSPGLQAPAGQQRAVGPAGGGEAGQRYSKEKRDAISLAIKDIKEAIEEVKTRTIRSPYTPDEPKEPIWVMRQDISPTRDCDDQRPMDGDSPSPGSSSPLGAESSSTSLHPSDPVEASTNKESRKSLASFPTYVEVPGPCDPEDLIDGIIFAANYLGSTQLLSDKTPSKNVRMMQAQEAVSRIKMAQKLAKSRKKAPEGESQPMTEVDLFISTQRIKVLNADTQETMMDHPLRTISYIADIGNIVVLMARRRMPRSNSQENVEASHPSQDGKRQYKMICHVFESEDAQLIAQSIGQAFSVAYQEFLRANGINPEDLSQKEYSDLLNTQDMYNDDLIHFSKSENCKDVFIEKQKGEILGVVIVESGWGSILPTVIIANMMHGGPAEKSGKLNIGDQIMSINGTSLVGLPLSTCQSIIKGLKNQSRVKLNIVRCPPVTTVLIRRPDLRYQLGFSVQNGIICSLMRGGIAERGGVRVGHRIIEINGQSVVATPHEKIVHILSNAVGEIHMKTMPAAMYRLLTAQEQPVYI
G-protein coupled receptor 55, sequence (Q9Y2T6 whole entry): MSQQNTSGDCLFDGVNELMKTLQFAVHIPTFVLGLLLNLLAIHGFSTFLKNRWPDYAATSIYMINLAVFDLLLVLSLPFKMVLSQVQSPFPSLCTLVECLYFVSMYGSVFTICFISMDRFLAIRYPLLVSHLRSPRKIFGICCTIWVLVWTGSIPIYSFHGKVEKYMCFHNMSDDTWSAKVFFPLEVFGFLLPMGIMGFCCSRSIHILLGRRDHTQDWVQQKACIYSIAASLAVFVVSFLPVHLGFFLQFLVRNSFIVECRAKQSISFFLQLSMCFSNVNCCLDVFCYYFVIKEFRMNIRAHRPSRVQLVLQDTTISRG
Probable nicotinate-nucleotide adenylyltransferase, sequence (P65502 whole entry): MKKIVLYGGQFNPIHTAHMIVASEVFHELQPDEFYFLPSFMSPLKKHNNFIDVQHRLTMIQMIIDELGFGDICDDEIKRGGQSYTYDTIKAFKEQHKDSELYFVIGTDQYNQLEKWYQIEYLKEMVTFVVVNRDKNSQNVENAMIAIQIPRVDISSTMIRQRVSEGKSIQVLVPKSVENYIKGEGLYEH
Dual specificity protein phosphatase 3, sequence (P51452 whole entry): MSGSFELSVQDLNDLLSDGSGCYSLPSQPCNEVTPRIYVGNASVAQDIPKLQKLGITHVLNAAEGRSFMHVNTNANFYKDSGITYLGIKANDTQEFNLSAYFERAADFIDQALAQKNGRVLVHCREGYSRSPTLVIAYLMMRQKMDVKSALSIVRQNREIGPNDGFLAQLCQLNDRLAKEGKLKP
Nonstructural protein 1, sequence (Q194T2 whole entry): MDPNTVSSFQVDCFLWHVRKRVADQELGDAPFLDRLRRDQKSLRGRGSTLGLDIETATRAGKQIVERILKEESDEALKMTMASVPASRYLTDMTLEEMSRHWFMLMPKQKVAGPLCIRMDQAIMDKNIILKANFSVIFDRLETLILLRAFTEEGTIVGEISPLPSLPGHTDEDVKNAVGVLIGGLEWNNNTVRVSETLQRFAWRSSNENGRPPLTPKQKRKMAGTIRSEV

On to `C=C1C(=O)O[C@@H]2C[C@@H](C)[C@@H]3C=CC(=O)[C@@]3(C)[C@@H](OC(=O)CC(=O)O[C@H]3[C@@H]4C(=C)C(=O)O[C@@H]4C[C@@H](C)[C@@H]4C=CC(=O)[C@]43C)[C@H]12`, for which the AC50 in assay [1] is 0.292 µM (active). The IC50 in assay [2] was > 80 µM (inactive); in assay [3], 1.85 µM (active); in the assay on CHO it was 0.147 µM (active); on Beta Lactamase it was 17.9 µM (inactive). Besides, the EC50 was 0.0525 µM (active) with BJ and 0.98 µM (active) in assay [4].
As for `CCN(CC)CCN1C(=O)c2cccc3cc(N)cc(c23)C1=O`, the AC50 is > 52 µM (inactive) at Keap1/Nrf2 and 56.9 µM (active) in assay [5].
For `O=S(=O)(O)c1cc(Cl)cc(N=Nc2ccc(O)cc2O)c1O`, the IC50 was 58.3 µM (active) at Genome polyprotein and 8.3 µM (active) at Nonstructural protein 1.
With `O=C(O)c1cccc(-n2cccc2/C=C2/NC(=O)N(c3ccc(Cl)cc3)C2=O)c1`, the IC50 was 2.44 µM (active) in assay [6]; 4.89 µM (active) in [7]; 9.85 µM (active) in [8]; < 1.23 µM (inactive) in [9]; 4.4 µM (active) in assay [10]; 21.3 µM (inactive) in assay [11]. In addition, the results for the IC50 in assay [12] and in assay [13] were 17.4 µM (active) and 11.1 µM (active), respectively.

Source of the values: ChEMBL document CHEMBL1201862, “PubChem BioAssay data set” (2004).
